Measured values: ChEMBL document CHEMBL1143651, “Design and synthesis of 6-anilinoindazoles as selective inhibitors of c-Jun N-terminal kinase-3” (Bioorg Med Chem Lett, 2005)

Tests used:
[1] = biological target: Mitogen-activated protein kinase 8 (Homo sapiens, UniProt P45983); test: Inhibitory concentration against c-Jun N-terminal kinase 1
[2] = biological target: Mitogen-activated protein kinase 10 (Homo sapiens, UniProt P53779); test: Inhibitory concentration against c-Jun N-terminal kinase 3
[3] = biological target: Mitogen-activated protein kinase 14 (Homo sapiens, UniProt Q16539); test: Inhibitory concentration against Mitogen-activated protein kinase p38 alpha
Chain of Mitogen-activated protein kinase 14 (Q16539 whole entry): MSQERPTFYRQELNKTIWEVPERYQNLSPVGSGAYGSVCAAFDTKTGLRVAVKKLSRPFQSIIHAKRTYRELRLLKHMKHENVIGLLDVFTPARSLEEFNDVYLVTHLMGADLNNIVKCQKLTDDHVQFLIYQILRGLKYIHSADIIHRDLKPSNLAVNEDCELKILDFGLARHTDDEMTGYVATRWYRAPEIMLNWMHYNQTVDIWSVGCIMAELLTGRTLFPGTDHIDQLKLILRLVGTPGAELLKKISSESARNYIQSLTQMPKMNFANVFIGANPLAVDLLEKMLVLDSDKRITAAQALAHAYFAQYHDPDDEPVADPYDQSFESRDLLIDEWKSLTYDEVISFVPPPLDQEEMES

Chain of Mitogen-activated protein kinase 8 (P45983 whole entry): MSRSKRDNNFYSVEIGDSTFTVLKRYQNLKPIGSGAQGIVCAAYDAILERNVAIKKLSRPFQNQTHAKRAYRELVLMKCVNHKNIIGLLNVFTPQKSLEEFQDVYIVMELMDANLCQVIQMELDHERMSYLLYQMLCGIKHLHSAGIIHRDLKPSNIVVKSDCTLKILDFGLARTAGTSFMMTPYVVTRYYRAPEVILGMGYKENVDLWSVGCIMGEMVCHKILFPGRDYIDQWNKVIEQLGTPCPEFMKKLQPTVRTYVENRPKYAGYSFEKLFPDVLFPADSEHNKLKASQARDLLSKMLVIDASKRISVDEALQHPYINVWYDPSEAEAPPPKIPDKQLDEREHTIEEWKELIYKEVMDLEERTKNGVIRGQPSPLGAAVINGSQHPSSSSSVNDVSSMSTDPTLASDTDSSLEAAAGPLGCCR
Chain of Mitogen-activated protein kinase 10 (P53779 whole entry): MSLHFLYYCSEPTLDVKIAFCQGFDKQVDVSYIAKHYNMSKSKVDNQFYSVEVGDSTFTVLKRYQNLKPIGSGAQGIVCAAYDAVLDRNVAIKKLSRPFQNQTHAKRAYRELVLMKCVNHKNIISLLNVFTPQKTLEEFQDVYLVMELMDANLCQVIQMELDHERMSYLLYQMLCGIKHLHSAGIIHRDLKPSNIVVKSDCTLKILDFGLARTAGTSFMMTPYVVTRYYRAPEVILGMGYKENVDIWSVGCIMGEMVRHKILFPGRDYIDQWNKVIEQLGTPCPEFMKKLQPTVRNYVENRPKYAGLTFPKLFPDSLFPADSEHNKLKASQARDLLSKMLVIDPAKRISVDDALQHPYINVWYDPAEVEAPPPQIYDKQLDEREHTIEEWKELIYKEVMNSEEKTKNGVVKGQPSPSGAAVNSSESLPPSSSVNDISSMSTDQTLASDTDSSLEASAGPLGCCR

| SMILES | IC50 [1] | IC50 [2] | IC50 [3] |
| --- | --- | --- | --- |
| Clc1ccccc1Nc1ccc2c(-c3ccccc3)n[nH]c2c1 | 5350 nM | 30 nM | 18 nM |
| O=C(NCCCN1CCOCC1)c1cccc(-c2n[nH]c3cc(Nc4ccccc4Cl)ccc23)c1 | 228 nM | 3.4 nM | 3.7 nM |
| CN(C)CCNC(=O)c1ccc(-c2n[nH]c3cc(Nc4ccccc4Cl)ccc23)cc1 | 45 nM | 1.9 nM | 8.7 nM |
| c1ccc(Nc2ccc3c(-c4ccccc4)n[nH]c3c2)cc1 | > 10000 nM | 48 nM | 30 nM |
| COc1ccccc1Nc1ccc2c(-c3ccccc3)n[nH]c2c1 | 1600 nM | 202 nM | 46 nM |
| O=C(NC1CCNCC1)c1cccc(-c2n[nH]c3cc(Nc4ccccc4Cl)ccc23)c1 | 71 nM | 1.4 nM | 4.4 nM |

Second part, the compound after the results:

| IC50 [1] | IC50 [2] | IC50 [3] | SMILES |
| --- | --- | --- | --- |
| 246 nM | 32 nM | 13 nM | O=C(O)c1ccc(-c2n[nH]c3cc(Nc4ccccc4Cl)ccc23)cc1 |
| 81 nM | 3.3 nM | 3.2 nM | NC(=O)c1cccc(-c2n[nH]c3cc(Nc4ccccc4Cl)ccc23)c1 |
| 61 nM | 5.3 nM | 24 nM | O=C(O)c1cccc(-c2n[nH]c3cc(Nc4ccccc4Cl)ccc23)c1 |
| 698 nM | 21 nM | 16 nM | CN(C)CCNC(=O)c1cccc(-c2n[nH]c3cc(Nc4ccccc4Cl)ccc23)c1 |
